Laboratory results reported in patent publication US12692248B2, “Solid state forms of (S)-N-(3-(2-(((R)-1-hydroxypropan-2-yl)amino)-6-morpholinopyridin-4-yl)-4-methylphenyl)-3-(2,2,2-trifluoroethyl)pyrrolidine-1-carboxamide and salts thereof” (PIERRE FABRE MEDICAMENT, priority 2021, dated 2026).
Where two headings read alike, the source gives them in different places.

Experiments:
Type in all cases: physicochemical
[1] = Dynamic Vapor Sorption (DVS); conditions: DVS
Procedure: Dynamic Vapor Sorption (DVS) Moisture sorption/desorption data was collected on a DVS Intrinsic PLUS (SMS, UK). The sample was placed into a tared sample chamber and automatically weighed. The sample was dried at 40° C./0%0 RH until the dm/dt was less than 0.00200 and cooled to 25° C. [table]

[2] = Stability at 60° C. and 40° C. at 75% relative humidity for 9 days (UPLC purity, XRPD); conditions: UPLC; for Purity −3 d: 3 days; for Purity −9 d: 9 days
Procedure: Compound 1 and Compound 2 were evaluated for stability at 60° C. and 40° C. at 75% relative humidity for 9 days. At 0, 3, and 9 days, the samples were dissolved with diluent to prepare a solution for purity analysis by UPLC. Solid samples were also analyzed by XRPD to check the crystal form.

[3] = Stability of Compound 2 in 0.5% MC/0.1% Tween 80 at 10 mg/mL; conditions: suspension 10 mg/mL in 0.5% MC/0.1% Tween 80, RT, 7 days
Procedure: A solution of Compound 2 was evaluated for stability in 0.5% MC/0.1% Tween 80 at 10 mg/mL. 10.7 mg of Compound 2 was weighed into a sample vial, and then 500 μL of 1% MC and 500 μL of 0.2% Tween 80 were added to obtain a suspension at 10 mg/mL (calculated as the free base). The mixture was kept stirring for 15 min at RT and the suspension was placed at RT for 7 days.

[4] = Thermodynamic solubility in 13 solvents at RT and 50° C. by UPLC; conditions: for solubility: thermodynamic from solid; for XRPD at 1 d / XRPD at 4 d: residual solid
Procedure: Thermodynamic solubility of Compound 2 was measured in 13 solvents at RT and 50° C. by UPLC, respectively. […] In most of other selected solvents, the compound was almost insoluble (<0.5 mg/mL) except in EtOH and water where it was slightly soluble (6-9 mg/mL).

[5] = Comparison dissolution trials in water and biorelevant media; conditions: for solubility at 0.5 h: read-out: Solubility (mg/mL) 0.5 h; for solubility at 2 h: read-out: Solubility (mg/mL) 2 h; for solubility at 24 h: read-out: Solubility (mg/mL) 24 h
Procedure: Comparison dissolution trials were performed on Compounds 1 and 2. About 20 mg of each sample was weighed into a sample vial and then 4 mL of media was added to make a suspension. All suspensions were shaken at 37° C. with a rate of 200 rpm. […] He pH of the filtrate was measured, and the filter cake was analyzed by XRPD. […] In biorelevant dissolution media FaSSIF and FeSSIF, the solubility of the Compound 1 and Compound 2 were similar.

[6] = simulated gastric fluid, thermodynamic from solid, SGF, 37° C.
[7] = thermodynamic from solid, FaSSIF, 37° C.
[8] = thermodynamic from solid, FeSSIF, 37° C.
[9] = thermodynamic from solid, Water, 37° C.

Cc1ccc(NC(=O)N2CC[C@@H](CC(F)(F)F)C2)cc1-c1cc(N[C@H](C)CO)nc(N2CCOCC2)c1.Cl [Compound 2, (S)—N-(3-(2-(((R)-1-hydroxypropan-2-yl)amino)-6-morpholinopyridin-4-yl)-4-methylphenyl)-3-(2,2,2-trifluoroethyl)pyrrolidine-1-carboxamide hydrochloride]
hygroscopicity [1]: slightly hydroscopic
water uptake at 80% RH ([1]; 25° C., 80% relative humidity): 0.66%
water uptake at 90% relative humidity ([1]; 25° C., 90% relative humidity): 0.95%
Purity −0 d (Area %) ([2]; 0 days (initial)): 99.77 Area %
Purity −3 d ([2]; 40° C./75% RH): 99.74 Area %
Purity −9 d ([2]; 40° C./75% RH): 99.76 Area %
Purity −3 d ([2]; 60° C.): 99.73 Area %
Purity −9 d ([2]; 60° C.): 99.74 Area %
form change [3]: No form change
purity decrease ([3]; UPLC): 0.13%
solubility ([4]; ACN, 50 °C, organic solvent or mixture, ACN, 50° C., read-out: Solubility at 50° C.(mg/mL)): 0.92 mg/mL
solubility ([4]; ACN, organic solvent or mixture, ACN, RT, read-out: Solubility at RT): 0.01 mg/mL
solubility ([4]; EA, 50 °C, organic solvent or mixture, EA, 50° C., read-out: Solubility at 50° C.(mg/mL)): 0.09 mg/mL
solubility ([4]; EA, organic solvent or mixture, EA, RT, read-out: Solubility at RT): 0.06 mg/mL
solubility ([4]; EtOH and water, water, EtOH and water (slightly soluble), read-out: solubility): 6 to 9 mg/mL
solubility ([4]; EtOH, 50 °C, organic solvent or mixture, EtOH, 50° C., read-out: Solubility at 50° C.(mg/mL)): 8.82 mg/mL
solubility ([4]; EtOH, organic solvent or mixture, EtOH, RT, read-out: Solubility at RT): 7.15 mg/mL
solubility ([4]; Hept, 50 °C, organic solvent or mixture, Hept, 50° C., read-out: Solubility at 50° C.(mg/mL)): 0.01 mg/mL
solubility ([4]; Hept, organic solvent or mixture, Hept, RT, read-out: Solubility at RT): 0.01 mg/mL
solubility ([4]; IPA, 50 °C, organic solvent or mixture, IPA, 50° C., read-out: Solubility at 50° C.(mg/mL)): 2.8 mg/mL
solubility ([4]; IPA, organic solvent or mixture, IPA, RT, read-out: Solubility at RT): 1.69 mg/mL
solubility ([4]; IPAC, 50 °C, organic solvent or mixture, IPAC, 50° C., read-out: Solubility at 50° C.(mg/mL)): 0.03 mg/mL
solubility ([4]; IPAC, organic solvent or mixture, IPAC, RT, read-out: Solubility at RT): 0.02 mg/mL
solubility ([4]; MEK, 50 °C, organic solvent or mixture, MEK, 50° C., read-out: Solubility at 50° C.(mg/mL)): 0.28 mg/mL
solubility ([4]; MEK, organic solvent or mixture, MEK, RT, read-out: Solubility at RT): 0.01 mg/mL
solubility ([4]; MIBK, 50 °C, organic solvent or mixture, MIBK, 50° C., read-out: Solubility at 50° C.(mg/mL)): 0.11 mg/mL
solubility ([4]; MIBK, organic solvent or mixture, MIBK, RT, read-out: Solubility at RT): 0.05 mg/mL
solubility ([4]; MTBE, 50 °C, organic solvent or mixture, MTBE, 50° C., read-out: Solubility at 50° C.(mg/mL)): 0.01 mg/mL
solubility ([4]; MTBE, organic solvent or mixture, MTBE, RT, read-out: Solubility at RT): 0.02 mg/mL
solubility ([4]; MeOH, 50 °C, organic solvent or mixture, MeOH, 50° C., read-out: Solubility at 50° C.(mg/mL)): ~102 mg/mL
Solubility at RT ([4]; MeOH, RT, hydrochloride): 54.67 mg/mL
solubility ([4]; MeOH, organic solvent or mixture, MeOH, RT, read-out: Solubility at RT): ~55 mg/mL
solubility ([4]; acetone, 50 °C, organic solvent or mixture, Acetone, 50° C., read-out: Solubility at 50° C.(mg/mL)): 0.45 mg/mL
solubility ([4]; acetone, organic solvent or mixture, Acetone, RT, read-out: Solubility at RT): 0.65 mg/mL
solubility ([4]; cyclohexane, 50 °C, organic solvent or mixture, Cyclohexane, 50° C., read-out: Solubility at 50° C.(mg/mL)): 0.05 mg/mL
solubility ([4]; cyclohexane, organic solvent or mixture, Cyclohexane, RT, read-out: Solubility at RT): 0.01 mg/mL
solubility ([4]; organic solvent or mixture, most of other selected solvents (almost insoluble), read-out: solubility): < 0.5 mg/mL
XRPD at 1 d ([4]; ACN, 50° C.): Form I
XRPD at 4 d ([4]; ACN, RT): Form I
XRPD at 1 d ([4]; Acetone, 50° C.): Form I
XRPD at 4 d ([4]; Acetone, RT): Form I
XRPD at 1 d ([4]; Cyclohexane, 50° C.): Form I
XRPD at 4 d ([4]; Cyclohexane, RT): Form I
XRPD at 1 d ([4]; EA, 50° C.): Form I
XRPD at 4 d ([4]; EA, RT): Form I
XRPD at 1 d ([4]; EtOH, 50° C.): Form I
XRPD at 4 d ([4]; EtOH, RT): Form I
XRPD at 1 d ([4]; Hept, 50° C.): Form I
XRPD at 4 d ([4]; Hept, RT): Form I
XRPD at 1 d ([4]; IPA, 50° C.): Form I
XRPD at 4 d ([4]; IPA, RT): Form I
XRPD at 1 d ([4]; IPAC, 50° C.): Form I
XRPD at 4 d ([4]; IPAC, RT): Form I
XRPD at 1 d ([4]; MEK, 50° C.): Form I
XRPD at 4 d ([4]; MEK, RT): Form I
XRPD at 1 d ([4]; MIBK, 50° C.): Form I
XRPD at 4 d ([4]; MIBK, RT): Form I
XRPD at 1 d ([4]; MTBE, 50° C.): Form I
XRPD at 4 d ([4]; MTBE, RT): Form I
XRPD at 1 d ([4]; MeOH, 50° C.): Form I
XRPD at 4 d ([4]; MeOH, RT): Form I
XRPD at 1 d ([4]; Water, 50° C.): Form I
XRPD at 4 d ([4]; Water, RT): Form I
form change during the solubility testing ([4]; residual solids by XRPD): no form change
solubility ([4]; water, 50 °C, water, Water, 50° C., read-out: Solubility at 50° C.(mg/mL)): 6.73 mg/mL
solubility ([4]; water, Water, RT, read-out: Solubility at RT): 6.15 mg/mL
solubility of Compound 1 and Compound 2 compared ([5]; FaSSIF and FeSSIF): similar
pH of the filtrate ([5]; Water medium): (pH 3.1)
solubility at 0.5 h [5, 6]: 0.2 mg/mL
solubility at 2 h [5, 6]: 0.27 mg/mL
solubility at 24 h [5, 6]: 0.39 mg/mL
solubility at 0.5 h [5, 7]: 0.024 mg/mL
solubility at 2 h [5, 7]: 0.021 mg/mL
solubility at 24 h [5, 7]: 0.027 mg/mL
solubility at 0.5 h [5, 8]: 0.21 mg/mL
solubility at 2 h [5, 8]: 0.2 mg/mL
solubility at 24 h [5, 8]: 0.23 mg/mL
solubility at 0.5 h [5, 9]: 1.42 mg/mL
solubility at 2 h [5, 9]: 1.36 mg/mL
solubility at 24 h [5, 9]: 2.49 mg/mL
solubility ([5]; thermodynamic from solid, water, 37° C.): ~2.5 mg/mL
